Test results as given in patent US20080241101A1, “Skin vitalizing composition for external use anti-aging preparation” (Shiseido Company, Ltd., priority 2002, published 2008).

Assays:
[1] = tested on: artificial skin (human dermal fibroblast collagen gel with human foreskin-derived epidermal keratinocytes); assay: Artificial skin culture with additives in the medium, H&E and type IV / type VII collagen immunostaining (Example 1); assay type: cell-based; details: for staining of type IV and type VII collagen: cytokine (1 ng/ml interleukin-1β, 1 ng/ml TGF-α or 100 ng/ml PDGF) combined with 10 μg/ml aprotinin and 10 μM compound A
Method: (§1) Collagen gel was obtained by preparing 10 ml of a human dermal fibroblasts (0.3-1×10^5 cell/ml)-suspended collagen solution (using I-AC collagen manufactured by Koken Co., Ltd.) on ice, followed by gelling the collagen in a 60 mm Petri dish at 37° C. The gel was then peeled from the bottom of the dish, the collagen gel was placed on metal, and a glass ring (12 mm inner diameter) was placed over the gel. A 0.4 ml portion of a human foreskin-derived epidermal keratinocyte (1×10^6/ml) suspension (KGM-DMEM (1:1) mixed medium containing 5% fetal bovine serum) was poured into the glass ring while avoiding leakage. The keratinocytes were allowed to adhere in a CO2 incubator overnight, and the ring was removed on the following day. The medium was filled in up to the border of the epidermal layer, and culturing was continued while exposing the epidermal layer to the air, to prepare a multilayered skin model with epidermis having a horny layer.
From the 4th day after seeding the epidermal cells, the medium was replaced with medium containing (1) no compound (−compound A), (2) 10 uM of compound A (+compound A), (3) 10 μM of compound A and 10 μg/ml of aprotinin (+compound A+aprotinin), (4) 10 μM of compound A and 1 ng/ml of interleukin-1β (+compound A+IL-1), (5) 10 μM of compound A, 1 ng/ml of interleukin-1β and 10 μg/ml of aprotinin (+compound A+IL-1+aprotinin), (6) 10 μM of compound A and 1 ng/ml of TFG-α (+compound A+TGFα), (7) 10 μM of compound A, 1 ng/ml of TGF-α and 10 μg/ml aprotinin (+compound A, +TGFα+aprotinin), (8) 10 μM of compound A and 100 ng/ml PDGF (+compound A+PDGF) and (9) 10 μm of compound A, 100 ng/ml PDGF and 10 μg/ml of aprotinin (+compound A+PDGF +aprotinin), and every 2-3 days thereafter, the medium was exchanged with a medium containing the same types and same concentrations of […], extracellular matrix production accelerator (cytokines) and serine protease inhibitor, after which culturing was performed for 2 weeks.
The formed artificial skin was stained with hematoxylin and eosin (H&E) and immunostaining (using anti-type IV collagen antibody and anti-type VII collagen antibody).

[2] = tested on: artificial skin basement membrane; assay: Transmission electron microscopy of basement membrane structure directly under the epidermis of artificial skin (Example 1); assay type: cell-based, human
Method: as §1, with “layer. […]” for “layer.”

[3] = cytokine (1 ng/ml interleukin-1β, 1 ng/ml TGF-α or 100 ng/ml PDGF) together with 10 μM compound A

| Molecule | staining of type IV and type VII collagen [1] | staining of type VII collagen [1, 3] | also measured |
| --- | --- | --- | --- |
| transforming growth factor-α (TGF-α): matrix protein production-increasing cytokine | clearly concentrated directly under the basal keratinocytes, giving a sharp stained image | particularly accentuated |  |
| aprotinin |  |  | staining of type VII collagen ([1]; 10 μg/ml aprotinin added in addition to 10 μM compound A, 2 weeks culture): further increased; basement membrane structure directly under the epidermis (transmission electron microscope) ([2]; 10 μg/ml aprotinin added with 10 μM compound A): increased the electron density and accentuated the continuity of the basement membrane |
| COc1ccc(S(=O)(=O)N(Cc2cccnc2)C(C(=O)NO)C(C)C)cc1.Cl (centres unmarked) [compound A, reference compound] |  |  | staining of type VII collagen directly under the basal keratinocytes ([1]; 10 μM compound A alone in medium, 2 weeks culture, versus no-addition control): weak but definite staining of type VII collagen; basement membrane structure directly under the epidermis (transmission electron microscope) ([2]; 10 μM compound A alone): induced formation of the basement membrane |
| interleukin 1 (IL-1): matrix protein production-increasing cytokine, interleukin-1β | clearly concentrated directly under the basal keratinocytes, giving a sharp stained image | particularly accentuated |  |
